Assays:
[1] = test system: CT26 (mouse colon adenocarcinoma) cell line; experiment: In vitro phototoxicity / dark toxicity towards CT26 cells; format: cell-based
Procedure: Phototoxicity towards cancer cell lines was evaluated in vitro using A549 (human lung adenocarcinoma) and CT26 (mouse colon adenocarcinoma) cell lines. The cells were cultured in Dulbecco's modified Eagles's medium (DMEM) supplemented with 10% heat-inactivated fetal bovine serum and 1% penicillin. Cells were plated at a density of 20,000/well and 15,000/well respectively, in flat-bottom 96-well plates. On the following day, diluted solutions of the test compound were prepared (1 mM stock) and added to the cells for 30-min incubation. […] The wells were washed two times with PBS and irradiated after 30-min of incubation using the LED light described above. Light dose was 1 J/cm^2. The medium was replaced with fresh one after irradiation and the plates were incubated for 24 h, at which time the cellular viability was assessed by resazurin method using a microplate spectrophotometer (Synergy HT Biotek).
This example describes the evaluation of in vitro phototoxicity of a carboxamide bacteriochlorin with formula IX after light irradiation, and their potential for PDT of cancer. The formulation employed was the same as that of Example 4. […] The phototoxicity was measured according to the description in the Materials and Methods section. The phototoxicity of the test compound was assessed in terms of the percentage of survival of the cells for various concentrations of the test compound incubated for 30 min, followed by washings with PBS, addition of the culture medium and illumination with a light dose of 1 J/cm^2.

[2] = Triplet-triplet transient absorption / photoacoustic calorimetry; format: physicochemical
Procedure: The triplet-triplet transient absorption was recorded in an Applied Photophysics LKS.60 laser flash photolysis spectrometer, with a Hewlett-Packard Infinium Oscilloscope and a Spectra-Physics Quanta-Ray GCR-130 Nd:YAG laser as excitation source. The pulse excitation was set at 355 nm.
The thermal energy released after electronic excitation was measured by time-resolved photoacoustic calorimetry using a front-face irradiation photoacoustic cell and a EKSPLA OPO model PG-122 pumped by an EKSPLA Nd:YAG. The signal detection was made using a 2.25 MHz Panametrics transducer. The excitation was at 690 nm and azulene was used as photoacoustic calorimetry reference.
(§1) This is indicative of negligible aggregation between the molecules, which exist mostly as monomers at these concentrations in the solvents studied. Table 1 presents the infrared molar absorption coefficient (εmax) and wavelength maximum in ethanol of a typical carboxamide halogenated bacteriochlorin derivative of Formula (I). The same table also presents triplet lifetimes (τT) in air and N2 saturated solutions, fluorescence lifetime (τS), the quantum yields of fluorescence (ΦF), triplet state formation (ΦT), and singlet oxygen generation (ΦΔ) in ethanol, and photodegradation quantum yield (Φpd) in methanol:PBS (3:2). Triplet decays were clearly mono-exponential and in air-saturated ethanol the triplet lifetimes were in the range of 200 to 300 nanoseconds. Such values are consistent with diffusion limited energy transfer from the triplet state of the photosensitizer to molecular oxygen through a charge-transfer interaction (8). The absorption intensity of the test compounds in the photobleaching studies followed a mono-exponential decrease as a function of the illumination time.

[3] = Skin permeation: amount of photosensitizer in pig skin after topical formulation; format: in vitro ADME; details: for Concentration average: 6 experiments
Procedure: Skin permeation was evaluated using a topical formulation containing benzyl alcohol (23%), Kolliphor EL (17%), Transcutol (50%) and water (10%). The photosensitizer added to this formulation corresponded to 1.85% of the mass before its addition, and the gelling agent (Aerosil 200) added corresponded to 5% of the mass before its addition. The photosensitizer was first dissolved in Transcutol and exposed to 3 min of vortex and 5 min of ultrasounds. A mixture of benzyl alcohol and Kolliphor EL was then added. Immediately after, it was mixed in an IKA MIXER at 200 rpm for 5 min and water was added drop-by-drop for 10 min. Finally, the gelling agent, Aerosil 200, was mixed in and the microemulsion gel was obtained. Skin permeation studies were performed in pig skin using samples collected from 5 months old pigs. The hair was removed as well as the underlying fatty layer, before the permeation studies.
This example describes the permeation of carboxamide bacteriochlorin with formula IX in pig skin. The topical formulation and the animal model were described in the Materials and Methods section. The permeation was assessed both in terms of the amount of photosensitizer in the skin after designated times of contact between the topical formulation and the skin (incubation time) and in terms of the depth of the permeation in the skin.
The assessment of the amount of carboxamide bacteriochlorin with formula IX in the skin after various incubation times involved the following steps: (i) application of 0.30 ml of formulation in 1 cm^2 areas of minipig skin to make 6 independent measurements for the incubation times of 30, 60 and 120 minutes; (ii) cleaning of the surface of the skin at the end of the incubation times; (iii) cutting the skin in small pieces and maceration in 2 ml of dichloromethane with the aid of dispersing machine; (iv) extraction with 10 ml of dichloromethane in a falcon tube for six hours; (v) dilution by a factor of 5 with ethanol. The volume of 200 μl of the test solution was added in triplicate to 96 well plate and fluorescence intensity was detected using a Synergy HT microplate reader form Biotek (California, USA), with an excitation filter of 508/20 nm and emission filter of 760/35 nm, against a calibration curve. The signal of a blank obtained with the same cleaning method was subtracted from the signal of the sample and the concentration of the photosensitizer in each sample was obtained with the calibration curve. A summary of the results can be seen in Table 2.

[4] = Singlet oxygen quantum yield (phosphorescence at 1270 nm); format: physicochemical; details: in ethanol
Text: The experiments were run at room temperature using the Nd-YAG laser Spectra-Physics Quanta-Ray GRC-130. The solutions were excited at 355 nm and the phosphorescence of singlet oxygen collected at 1270 nm in a Hamamatsu R5509-42 photomultiplier, cooled to 193 K in a liquid nitrogen chamber, after selection of the wavelength with a monochromator with 600 lines grading. Phenalenone was used as a reference of singlet oxygen generator. A Newport filter model 10LWF-1000-B was used in the emission to avoid scattering and fluorescence.
as §1, with “Such values are consistent with diffusion limited energy transfer from the triplet state of the photosensitizer to molecular oxygen through a charge-transfer interaction (8). The absorption intensity of the test compounds in the photobleaching studies followed a mono-exponential decrease as a function of the illumination time.” left out

[5] = Optical absorption (UV-Vis-NIR) in ethanol; format: physicochemical
Procedure: The UV-Vis-NIR optical absorption was recorded with an Agilent Cary5000 UV-Vis-NIR Spectrophotometer in the determination of the molar absorption coefficient and with Shimadzu UV-2100 spectrometer in routine measurements. The absorption spectra were recorded in the wavelengths from 300 nm up to 800 nm.
as §1

CNC(=O)c1c2nc(c(-c3c(F)cccc3F)c3ccc(cc4nc(c(-c5c(F)cccc5F)c5ccc1[nH]5)CC4)[nH]3)CC2 [formula IX, 5-methylcarboxamide-10,20-bis-(2,6-difluorophenyl)bacteriochlorin]
IC50 ([1]; 30 min incubation, irradiated with 1 J/cm^2): 5.8 nM
photosensitizer concentration at which nearly all cells are killed ([1]; CT26, 30 min incubation, 1 J/cm^2 (FIG. 6)): 50 nM
concentration with no signs of toxicity in the dark ([1]; CT26, incubation in the dark for 30 min): up to 40 μM
τT (N2) triplet lifetime ([2]; N2-saturated ethanol): 71 ± 5 μs
τT (air) triplet lifetime ([2]; air-saturated ethanol): 210 ns
ΦT triplet state formation quantum yield ([2]; in ethanol): 0.45
flux of the photosensitizer to the skin Jmax ([3]; attained in 1.5 hours, topical formulation): 4×10^−8 mol/(cm^2 h)
Mass in the skin ([3]; incubation time 30 min): 5.41 ± 1.33 μg/cm^2
Concentration average ([3]; incubation time 30 min): 0.909 µM
Mass in the skin ([3]; incubation time 60 min): 19.9 ± 5.12 μg/cm^2
Concentration average ([3]; incubation time 60 min): 3.34 µM
Mass in the skin ([3]; incubation time 120 min): 37.2 ± 7.45 μg/cm^2
Concentration average ([3]; incubation time 120 min): 6.26 µM
ΦΔ singlet oxygen quantum yield [4]: 0.38
λ (wavelength of maximum infrared absorption) [5]: 734 nm
ε (λ) molar absorption coefficient ([5]; at 734 nm): 69 10^3 M^−1 cm^−1
